Laboratory results as given in patent publication US6652890B2, “Tea catechins as cancer specific proliferation inhibitors” (Purdue Research Foundation, priority 1999, dated 2003).
“Also recorded” adds a separate entry of the source. Where two headings read alike, the source gives them in different places.

Columns and labels:
[1] = target: T1, tNOX activity of intact 4T1 mouse mammary cells (Mus musculus, UniProt Q8R0Z2); test: Inhibition of tNOX (NADH oxidase) activity of intact 4T1 cells; assay type: cell-based; conditions: for Inhibition of residual tNOX remaining in the presence of EGCg, EC>90: estimated
T1 construct: endogenous in cells; host or cells: 4T1 mouse mammary carcinoma cells (intact)
T1 sequence (Q8R0Z2 1-598): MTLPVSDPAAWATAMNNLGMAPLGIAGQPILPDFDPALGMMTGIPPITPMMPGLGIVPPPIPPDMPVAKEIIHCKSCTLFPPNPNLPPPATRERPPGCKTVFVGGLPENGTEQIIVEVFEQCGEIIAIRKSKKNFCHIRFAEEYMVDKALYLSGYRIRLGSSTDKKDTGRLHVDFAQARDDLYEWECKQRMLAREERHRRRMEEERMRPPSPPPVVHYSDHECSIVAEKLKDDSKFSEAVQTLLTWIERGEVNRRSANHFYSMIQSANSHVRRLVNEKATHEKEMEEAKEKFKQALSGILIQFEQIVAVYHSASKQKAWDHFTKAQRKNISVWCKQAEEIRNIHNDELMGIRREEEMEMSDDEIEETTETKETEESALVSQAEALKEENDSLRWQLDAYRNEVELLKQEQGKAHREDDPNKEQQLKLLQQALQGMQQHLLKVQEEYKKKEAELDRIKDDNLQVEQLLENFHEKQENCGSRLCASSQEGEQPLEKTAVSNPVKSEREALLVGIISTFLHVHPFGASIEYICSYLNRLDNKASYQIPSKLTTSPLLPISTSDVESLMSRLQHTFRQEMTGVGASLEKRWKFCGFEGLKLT
Method: A mouse mammary tumor subpopulation line 4T1 arising from a BALB/cf C3H mouse was grown in DME-10, Dulbecco's modified Eagle's medium supplemented with 5% fetal calf serum, 5% newborn calf serum, 1 mM mixed non-essential amino acids, 2 mM L-glutamine, penicillin (100 units/ml), and streptomycin (100 μg/ml) (Miller et al., 1987, Brit. J. Can. 56:561-569 and Miller et al., 1990, Invasion Metastasis 10:101-112).
NADH oxidase activity was determined as the disappearance of NADH measured at 340 nm in a reaction mixture containing 25 mM Tris-Mes buffer (pH 7.2), 1 mM KCN, and 150 μM NADH at 37° C. Activity was measured using a Hitachi U3210 spectrophotometer with stirring and continuous recording over two intervals of 5 min each. A millimolar extinction coefficient of 6.22 was used to determine specific activity.
NADH oxidase activity was determined as the disappearance of NADH measured at 340 nm in a reaction mixture containing 25 mM Tris-Mes buffer (pH 7.2), 1 mM KCN, and 150 μM NADH at 37° C. Activity was measured at 340 nm with reference at 430 nm using an SLM Aminco DW-2000 spectrophotometer (Milton Roy, Rochester, N.Y.) in the dual beam mode of operation with stirring and continuous recording over two intervals of 5 min each. A millimolar extinction coefficient of 6.22 was used to determine specific activity.

4T1 mouse mammary cancer = test: Preliminary animal study, Balb/c mice with 4T1 mouse mammary cancer; assay type: in vivo; conditions: treated for 5 days, 100 μl/day; glaucarubolone 1 mg, EGCg + EC 0.2 + 1.2 mg per animal
[2] = system: 4T1 metastatic mouse mammary cancer cells; test: Killing of 4T1 metastatic mouse mammary cancer cells in culture; assay type: cell-based; conditions: EGCg 10^−7 M, EC 10^−4 M, alone or combined
[3] = Inhibition of residual tNOX remaining in the presence of EGCg, EC50, estimated, EGCg given as 0.1 mM (title), 10^−6 M (head), 10^−7 M
[4] = EGCg given as 0.1 mM (title), 10^−6 M (head), 10^−7 M

O=C(O[C@@H]1Cc2c(O)cc(O)cc2O[C@@H]1c1ccc(O)c(O)c1)c1cc(O)c(O)c(O)c1 [ECG, (−) - epicatechin gallate]
EC50 [1, 3]: 500 nM
Inhibition of residual tNOX remaining in the presence of EGCg, EC>90 [1, 4]: 10^−6 M

Oc1cc(O)c2c(c1)O[C@H](c1cc(O)c(O)c(O)c1)[C@H](O)C2 [EGC, (−) - epigallocatechin]
EC50 [1, 3]: 1000 nM
Inhibition of residual tNOX remaining in the presence of EGCg, EC>90 [1, 4]: 10^−5 M

CC1=CC(=O)[C@@H](O)[C@]2(C)[C@H]3[C@@]4(O)OC[C@]35[C@H]([C@@H](C)[C@H]4O)[C@@H](O)C(=O)O[C@@H]5C[C@@H]12 [Glaucarubolone, glaucarubolone]
Tumor wt (4T1 mouse mammary cancer): 1.5 ± 0.1 g

Oc1cc(O)c2c(c1)O[C@H](c1ccc(O)c(O)c1)[C@H](O)C2 [EC, (−) - epicatechin]
EC50 for tNOX inhibition by (−)-epicatechin ([1]; EGCg concentration 0 M, EGCg alone): No effect
EC50 for tNOX inhibition by (−)-epicatechin ([1]; EGCg concentration 0 M, supplied as Tegreen™): No effect
EC50 ([1]; EGCg concentration 10^−4 M, EGCg alone, read-out: EC50 for tNOX inhibition by (−)-epicatechin): 500 ± 400 nM
EC50 ([1]; EGCg concentration 10^−4 M, supplied as Tegreen™, read-out: EC50 for tNOX inhibition by (−)-epicatechin): 300 ± 200 nM
EC50 ([1]; EGCg concentration 10^−5 M, EGCg alone, read-out: EC50 for tNOX inhibition by (−)-epicatechin): 700 ± 300 nM
EC50 ([1]; EGCg concentration 10^−6 M, EGCg alone, read-out: EC50 for tNOX inhibition by (−)-epicatechin): 150 ± 50 nM
EC50 ([1]; EGCg concentration 10^−6 M, supplied as Tegreen™, read-out: EC50 for tNOX inhibition by (−)-epicatechin): 500 ± 400 nM
EC50 ([1]; EGCg concentration 10^−7 M, EGCg alone, read-out: EC50 for tNOX inhibition by (−)-epicatechin): 200 ± 100 nM
EC50 for tNOX inhibition by (−)-epicatechin ([1]; EGCg concentration 10^−7 M, supplied as Tegreen™): No effect
EC50 for tNOX inhibition by (−)-epicatechin ([1]; EGCg concentration 10^−8 M, EGCg alone): No effect
EC50 for tNOX inhibition by (−)-epicatechin ([1]; EGCg concentration 10^−8 M, supplied as Tegreen™): No effect
EC50 ([1]; in the presence of 10^−7 M EGCg, read-out: EC50 of EC): ~200 nM
Increase in cell number cm^−2 over 72 h · 10^2 [2]: 560 cm^−2 · 10^2

O=C(O[C@@H]1Cc2c(O)cc(O)cc2O[C@H]1c1cc(O)c(O)c(O)c1)c1cc(O)c(O)c(O)c1 [GCG, gallocatechin gallate]
Inhibition of residual tNOX remaining in the presence of EGCg, EC>90 [1, 4]: Not reached due
Effect on NOX activity ([1]; in the presence of 10^−7 M EGCg): less effective; also recorded: less affected

Oc1cc(O)c2c(c1)OC(c1ccc(O)c(O)c1)C(O)C2 (racemic) [C, (±) - catechin]
Effect on NOX activity ([1]; in the presence of 10^−7 M EGCg, listed as Catechin): largely without effect
Effect on NOX activity ([1]; in the presence of 10^−7 M EGCg, listed as ±catechin): little affected
